Molecular target: T1, human renin (Homo sapiens, UniProt P00797)
T1 construct: A human plasma pool is used as the source of both the substrate (angiotensinogen) and the enzyme (renin); from tissue; host or cells: human plasma pool
T1 sequence (P00797 67-406): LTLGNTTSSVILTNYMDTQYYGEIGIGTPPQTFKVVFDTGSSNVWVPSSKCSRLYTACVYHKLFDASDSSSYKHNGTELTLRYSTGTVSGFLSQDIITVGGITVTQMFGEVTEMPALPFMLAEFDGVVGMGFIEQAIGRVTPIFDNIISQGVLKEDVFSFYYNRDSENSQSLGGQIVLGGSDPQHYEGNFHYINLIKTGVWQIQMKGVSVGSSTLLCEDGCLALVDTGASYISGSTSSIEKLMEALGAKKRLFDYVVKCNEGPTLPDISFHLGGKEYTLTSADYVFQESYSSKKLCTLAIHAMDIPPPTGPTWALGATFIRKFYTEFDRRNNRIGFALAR
Assay: Plasma renin assay (inhibition of human renin, angiotensin I by RIA)
Type: biochemical
Conditions: human plasma pool, pH 6.0, 2 h incubation at 37°
Procedure, shortened: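 Pooled human plasma supplies both renin and angiotensinogen; inhibitor in MES/1% HSA buffer (1% DMSO final) incubated 2 h at 37° at pH 6.0. Angiotensin I generated quantified by radioimmunoassay, inhibition relative to no-inhibitor control, IC50 by nonlinear regression.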

| SMILES | IC50 [nM] |
| --- | --- |
| CCC(CC)CN(CC(=O)N(C)CCc1ccccn1)C(=O)C[C@@H](Cc1csc(N)n1)C(=O)N[C@@H](CC1CCCCC1)[C@@H](O)[C@@H](O)CC(C)C [Compound 84, N^4-(2-ethylbutyl)-N^4 -{2-{methyl[2-(2-pyridinyl)ethyl]amino}-2-oxoethyl}-N^1-[1(S)-(cyclohexylmethyl)-2(R),3(S)-dihydroxy-5-methylhexyl]-2(R)-[(2-amino-4-thiazolyl)methyl]-butanediamide] | 3 |
| CC(C)C[C@H](O)[C@H](O)[C@H](CC1CCCCC1)NC(=O)[C@@H](CC(=O)N(CC(=O)N(C)CCc1ccccn1)Cc1nccs1)Cc1csc(N)n1 [Compound 86, N^4 -{2-{methyl[2-(2-pyridinyl)ethyl]-amino}-2-oxoethyl}-N^4-(2-thiazolylmethyl)-N^1-[1(S)-(cyclohexylmethyl)-2(R),3(S)-dihydroxy-5-methylhexyl]-2(R)-[(2-amino-4-thiazolyl)methyl]-butanediamide] | 6 |
| Cc1ccsc1CN(CC(=O)N(C)CCc1ccccn1)C(=O)C[C@@H](Cc1csc(N)n1)C(=O)N[C@@H](CC1CCCCC1)[C@@H](O)[C@@H](O)CC(C)C [Compound 88, N^4 -{2-{methyl[2-(2-pyridinyl)ethyl]-amino}-2-oxoethyl}-N^4-[(3-methyl-2-thienyl)methyl]-N^4-[1(S)-(cyclohexylmethyl)-2(R),3(S)-dihydroxy-5-methylhexyl]-2(R)-[(2-amino-4-thiazolyl)methyl]butanediamide] | 4 |
| CC(C)C[C@H](O)[C@H](O)[C@H](CC1CCCCC1)NC(=O)[C@@H](CC(=O)N(CC(=O)N(C)CCc1ccccn1)Cc1ccoc1)Cc1csc(N)n1 [Compound 89, N^4-(3-furanylmethyl)-N^4 -{2-{methyl-[2-(2-pyridinyl)ethyl]amino}-2-oxoethyl}-N^1-[1(S)-(cyclohexylmethyl)-2(R),3(S)-dihydroxy-5-methylhexyl]-2(R)-[(2-amino-4-thiazolyl)-methyl]butanediamide] | 3 |
| CCCC(CCC)N(CC(=O)N(C)CCc1ccccn1)C(=O)C[C@@H](Cc1csc(N)n1)C(=O)N[C@@H](CC1CCCCC1)[C@@H](O)[C@@H](O)CC(C)C [Compound 91] | 8 |
| CCCC(CCC)CN(CC(=O)N(C)CCc1ccccn1)C(=O)C[C@@H](Cc1csc(N)n1)C(=O)N[C@@H](CC1CCCCC1)[C@@H](O)[C@@H](O)CC(C)C [Compound 92, N^4 -{2-{methyl[2-(2-pyridinyl)ethyl]-amino}-2-oxoethyl}-N^4-(2-propylpentyl)-N^1-[1(S)-(cyclohexylmethyl)-2(R),3(S)-dihydroxy-5-methylhexyl]-2(R)-[(2-amino-4-thiazolyl)methyl]-butanediamide] | 5 |

Continued by falling IC50, values first:

| IC50 [nM] | SMILES |
| --- | --- |
| 3 | CC(C)C[C@H](O)[C@H](O)[C@H](CC1CCCCC1)NC(=O)[C@@H](CC(=O)N(CC(=O)N(C)CCc1ccccn1)Cc1ccccc1F)Cc1csc(N)n1 [Compound 82, N^4-[(2-fluorophenyl)methyl]-N^4 -{2-{methyl[2-(2-pyridinyl)ethyl]-amino}-2-oxoethyl}-N^1-[1(S)-(cyclohexylmethyl)-2(R),3(S)-dihydroxy-5-methylhexyl]-2(R)-[(2-amino-4-thiazolyl)methyl]butanediamide] |
| 2 | CC(C)C[C@H](O)[C@H](O)[C@H](CC1CCCCC1)NC(=O)[C@@H](CC(=O)N(CCC1CCCC1)CC(=O)N(C)CCc1ccccn1)Cc1csc(N)n1 [Compound 87, N^4-(2-cyclopentylethyl)-N^4 -{2-{methyl[2-(2-pyridinyl)ethyl]amino}-2-oxoethyl}-N^1-[1(S)-(cyclohexylmethyl)-2(R),3(S)-dihydroxy-5-methylhexyl]-2(R)-[(2-amino-4-thiazolyl)-methyl]butanediamide] |
| 2 | CC(C)C[C@H](O)[C@H](O)[C@H](CC1CCCCC1)NC(=O)[C@@H](CC(=O)N(CC(=O)N(C)CCN1CCOCC1)[C@@H](C)c1ccccc1)Cc1csc(N)n1 [Compound 93, N^4 -{2-[methyl(2-morpholinoethyl)-amino]-2-oxoethyl}-N^4-[1(S)-phenylethyl]-N^1-[1(S)-(cyclohexylmethyl)-2(R),3(S)-dihydroxy-5-methylhexyl]-2(R)-[(2-amino-4-thiazolyl)methyl]-butanediamide] |
| 1 | CC(C)C[C@H](O)[C@H](O)[C@H](CC1CCCCC1)NC(=O)[C@@H](CC(=O)N(CC(=O)N(C)CCc1ccccn1)CC1CCCCCC1)Cc1csc(N)n1 [Compound 81, N^4-(cycloheptylmethyl)-N^4 -{2-{methyl[2-(2-pyridinyl)ethyl]amino}-2-oxoethyl}-N^1-[1(S)-(cyclohexylmethyl)-2(R),3(S)-dihydroxy-5-methylhexyl]-2(R)-[(2-amino-4-thiazolyl)-methyl]butanediamide] |
| 1 | CC(C)C[C@H](O)[C@H](O)[C@H](CC1CCCCC1)NC(=O)[C@@H](CC(=O)N(CC(=O)N(C)C)CC1CCCC1)Cc1csc(N)n1 [Compound 85, N^4-(cyclopentylmethyl)-N^4-[2-(dimethylamino)-2-oxoethyl]-N^1-[1(S)-(cyclohexylmethyl)-2(R),3(S)-dihydroxy-5-methylhexyl]-2(R)-[(2-amino-4-thiazolyl)methyl]butanediamide] |
| 0.5 | CC(C)C[C@H](O)[C@H](O)[C@H](CC1CCCCC1)NC(=O)[C@@H](CC(=O)N(CC(=O)N(C)CCN1CCOCC1)CC1CCCCC1)Cc1csc(N)n1 [Compound 90, N^4-(cyclohexylmethyl)-N^4 -{2-{methyl-(2-morpholinoethyl)amino]-2-oxoethyl}-N^1-[(S)-(cyclohexylmethyl)-2(R),3(S)-dihydroxy-5-methylhexyl]-2(R)-[(2-amino-4-thiazolyl)methyl]-butanediamide] |
| 0.35 | CC(C)C[C@H](O)[C@H](O)[C@H](CC1CCCCC1)NC(=O)[C@@H](CC(=O)N(CC(=O)N(C)CCN(C)C(=O)N1CCOCC1)CC1CCCCC1)Cc1csc(N)n1 [Compound 83, N^4-(cyclohexylmethyl)-N^4 -{2-{methyl{2-[methyl(morpholinocarbonyl)-amino]ethyl}amino}-2-oxoethyl}-N^1-[1(S)-(cyclohexylmethyl)-2(R),3(S)-dihydroxy-5-methylhexyl]-2(R)-[(2-amino-4-thiazolyl)methyl]butanediamide] |

— patent US5541163A, “Renin inhibiting N-(2-amino-2-oxoethyl)butanediamide derivatives” (Bio-Mega/Boehringer Ingelheim Research Inc., priority 1993, dated 1996)
